Results reported in US20240239813A1, “KRAS INHIBITORS AND PHARMACEUTICAL USES THEREOF” (RISEN (SUZHOU) PHARMA TECH CO., LTD., priority 2022, published 2024).

Legend:
[1] = molecular target: His-tagged Human KRAS^G12D (Homo sapiens (Human), UniProt P01116, G12D); test: HTRF KRAS G12D GTP binding assay; conditions: displacement of GTP-Red tracer
GP2D = test: Cell proliferation assay (CellTiterGlo), GP2D; assay type: cell-based; conditions: Homo sapiens, 72 hours
Description: (§1) A cell proliferation assay was used to evaluate inhibition by exemplary compounds. Proliferation assays used human tissue derived cancer cell lines, for example, AsPC-1 (Cobioer, CBP60546), GP2D (Cobioer, CBP60683), NCI-H358 (Cobioer, CBP60544), NCI-H727 (Cobioer, CBP60182), MKN-1 (Cobioer, CBP60486), HCT116 (ATCC, CCL-247), and HT-29 (Cobioer, CBP60011). Signal reflecting cell proliferation was detected with the CellTiterGlo kit (Promega, G7573).
(§2) Cells were cultured in the growth phase and 3×10^3 cells per well were plated in a 96-well plate (Greiner, 655090). Cells were incubated 24 hours at 37° C. and 5% carbon dioxide in a humidity chamber. Serially diluted exemplary compounds were added to the plate which was then incubated for another 72 hours. Plates were brought to room temperature and an equal volume of CellTiterGlo reagent was added. After 10 minutes incubation at room temperature to stabilize the signal, the luminescent signal was measured on the VICTOR Nivo multimode plate reader according to the manufacturer's instructions. The signal was converted to percent inhibition using the following formula: […]
(§3) (where the “Maximum Signal” are wells containing DMSO without inhibitor; the “Minimum Signal” are signal of wells recorded at Day 0 prior to commencement of the experiment; the “Test compound signal” are wells containing inhibitor at established concentrations).
(§4) IC50 was determined by fitting percent inhibition at each inhibitor concentration to the four-parameter nonlinear logistic equation using GraphPad Prism. IC50 (nM) values of selected compounds are depicted in Table 4. “-”: means without measuring; and “ND” means not detected.

NCI-H358 = test: Cell proliferation assay (CellTiterGlo), NCI-H358; assay type: cell-based; conditions: Homo sapiens, NCI-H358, 72 hours
Description: as §1, §2, §3, §4

NCI-H727 = test: Cell proliferation assay (CellTiterGlo), NCI-H727; assay type: cell-based; conditions: Homo sapiens, NCI-H727, 72 hours
Description: as §1, §2, §3, §4

MKN-1 = test: Cell proliferation assay (CellTiterGlo), MKN-1; assay type: cell-based; conditions: Homo sapiens, MKN-1, 72 hours
Description: as §1, §2, §3, §4

AsPC-1 = test: Cell proliferation assay (CellTiterGlo), AsPC-1; assay type: cell-based; conditions: Homo sapiens, ASPC1, AsPC-1, 72 hours
Description: as §1, §2, §3, §4

[2] = Microsomal stability assay, mouse liver microsomes; assay type: in vitro ADME; conditions: CD-1, pooled mouse liver microsomes, 0.5 mg/mL protein
Description: (§5) Test results from this assay were used to determine the metabolic liabilities of test compounds and allow focus on the improvement of drug candidates through structure-activity relationships. Pooled mouse/rat/human liver microsomes were used for this assay
(§6) In vitro mouse (CD-1, BioIVT)/rat (SD, RILD)/human (Corning) liver microsomal suspensions at 0.5 mg/mL protein and 1.3 mM NADPH, 3.3 mM MgCl2 were pre incubated at 37° C. for 3 mins prior to addition of 0.1 mM test compound solution to give a final incubation concentration of 1 μM. Samples were incubated for 0, 15, 30, 60 minutes at 37° C. on a shaker (the positive control substance was cultured for 0 or 60 minutes). At the end of each incubation time both incubated and control samples were quenched with ice-cold stop solution containing internal standard. All samples were mixed by a plate shaker at 800 rpm for 5 minutes, then centrifuged at 4100 rpm for 15 minutes at 4° C. to precipitate protein. Supernatant was transferred to another 96-well plate, dilution solution was added to each supernatant well, and then each bioanalysis plate was sealed. The samples were mixed by plate shaker at 800 rpm for 5 minutes and then centrifuged at 4° C., 4100 rpm for 5 minutes. All samples were stored at 4° C. before LC-MS/MS analysis.
(§7) The peak area ratio was converted to the remaining percentages (% Remaining) using the following formula: […]
(§8) where % Remaining is the compound ratio (compound peak area/internal standard peak area) as a percentage of the 0 minute time point.
(§9) The ln remaining percent of test articles were plotted against time and the gradient of the line determined; the gradient was converted to elimination rate constant by using the following formula:
(§10) Elimination rate constant(ke)=−gradient
(§11) Half time (T1/2) was determined using following formula: […]
(§12) Hepatic intrinsic clearance (CLint(liver)) was determined by using the following formulas: […]
(§13) The Intrinsic clearance of selected compounds is depicted in Table 6.

[3] = Microsomal stability assay, rat liver microsomes; assay type: in vitro ADME; conditions: SD, pooled rat liver microsomes, 0.5 mg/mL protein
Description: as §5, §6, §7, §8, §9, §10, §11, §12, §13

[4] = Microsomal stability assay, human liver microsomes; assay type: in vitro ADME; conditions: pooled human liver microsomes, 0.5 mg/mL protein
Description: as §5, §6, §7, §8, §9, §10, §11, §12, §13

[5] = tested on: phosphorylation of p-ERK1/2 in AsPC-1; test: Cellular phospho-ERK inhibition, AsPC-1; assay type: cell-based; conditions: Homo sapiens, ASPC1; AsPC-1, 4 hours
Description: (§14) The ability of exemplary test compounds to inhibit the phosphorylation of p-ERK1/2, which is the downstream effector of KRas in multiple human cancer cell lines such as AsPC-1 (Cobioer, CBP60546), GP2D (Cobioer, CBP60683), NCI-H358 (Cobioer, CBP60544), NCI-H727 (Cobioer, CBP60182), MKN-1 (Cobioer, CBP60486), HCT116 (ATCC, CCL-247), and HT-29 (Cobioer, CBP60011), was measured. Signal reflecting cell proliferation was detected with the Advanced phospho-ERK (Thr202/Tyr204) cellular kit (Cisbio, 64AERPEG).
(§15) Cells were cultured in the growth phase and 3×10^4 cells per well were plated in a 96-well plate (Corning, 3599). Cells were incubated 24 hours at 37° C. and 5% carbon dioxide in a humidity chamber. Serially diluted exemplary compounds were added to the cell plate which was then incubated for another 4 hours in a humid tray at 37° C. and 5% carbon dioxide. 1× Lysis buffer (Cisbio, 64AERPEG) was prepared at ambient temperature. Cell culture medium was removed, then lysis buffer (50 μL/well) was added to the cell plate and the plate was incubated at room temperature for 30 minutes on a shaker. […] The luminescent signal was measured on the VICTOR Nivo multimode plate reader according to the manufacturer's instructions. […]
(§16) IC50 was determined by fitting percent inhibition at each inhibitor concentration to the four-parameter nonlinear logistic equation using GraphPad Prism. […]

[6] = tested on: phosphorylation of p-ERK1/2 in GP2D; test: Cellular phospho-ERK inhibition, GP2D; assay type: cell-based; conditions: Homo sapiens, 4 hours
Description: as §14, §15, §16

[7] = tested on: phosphorylation of p-ERK1/2 in NCI-H358; test: Cellular phospho-ERK inhibition, NCI-H358; assay type: cell-based; conditions: Homo sapiens; NCI-H358, 4 hours
Description: as §14, §15, §16

[8] = tested on: phosphorylation of p-ERK1/2 in NCI-H727; test: Cellular phospho-ERK inhibition, NCI-H727; assay type: cell-based; conditions: Homo sapiens; NCI-H727, 4 hours
Description: as §14, §15, §16

[9] = tested on: phosphorylation of p-ERK1/2 in HCT-116; test: Cellular phospho-ERK inhibition, HCT-116; assay type: cell-based; conditions: Homo sapiens; HCT-116, 4 hours
Description: as §14, §15, §16

[10] = tested on: phosphorylation of p-ERK1/2 in MKN-1; test: Cellular phospho-ERK inhibition, MKN-1; assay type: cell-based; conditions: Homo sapiens; MKN-1, 4 hours
Description: as §14, §15, §16

[11] = tested on: phosphorylation of p-ERK1/2 in HT-29; test: Cellular phospho-ERK inhibition, HT-29; assay type: cell-based; conditions: Homo sapiens; HT-29, 4 hours
Description: as §14, §15, §16

HCT-116 = test: Cell proliferation assay (CellTiterGlo), HCT-116; assay type: cell-based; conditions: Homo sapiens, HCT-116, 72 hours
Description: as §1
(§17) Cells were cultured in the growth phase and 3×10^3 cells per well were plated in a 96-well plate (Greiner, 655090). Cells were incubated 24 hours at 37° C. and 5% carbon dioxide in a humidity chamber. […] After 10 minutes incubation at room temperature to stabilize the signal, the luminescent signal was measured on the VICTOR Nivo multimode plate reader according to the manufacturer's instructions. […]
as §3
(§18) IC50 was determined by fitting percent inhibition at each inhibitor concentration to the four-parameter nonlinear logistic equation using GraphPad Prism. […] “-”: means without measuring; and “ND” means not detected.

HT-29 = test: Cell proliferation assay (CellTiterGlo), HT-29; assay type: cell-based; conditions: Homo sapiens, HT-29, 72 hours
Description: as §1, §17, §3, §18

Chain of His-tagged Human KRAS^G12D (P01116-2 other isoform, or with tags, fused parts or gaps G12D): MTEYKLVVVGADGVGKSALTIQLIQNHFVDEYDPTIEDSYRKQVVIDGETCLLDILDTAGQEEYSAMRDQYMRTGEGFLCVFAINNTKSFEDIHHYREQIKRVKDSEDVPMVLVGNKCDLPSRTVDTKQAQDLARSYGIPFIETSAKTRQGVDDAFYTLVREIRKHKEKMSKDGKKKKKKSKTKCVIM

Structure (SMILES) | IC50 [1] | IC50 (GP2D) | IC50 (NCI-H358) | IC50 (NCI-H727) | IC50 (MKN-1) | IC50 (AsPC-1) | CLint scaled at 1 μM [2] | CLint scaled at 1 μM [3] | CLint scaled at 1 μM [4] | IC50 [5] | IC50 [6] | IC50 [7] | IC50 [8] | IC50 [9] | IC50 [10] | IC50 [11] | IC50 (HCT-116) | IC50 (HT-29)
CCc1c(F)ccc2cc(O)cc(-c3ncc4c(N5C[C@H](O)C[C@H]5CO)nc(OC[C@@]56CCCN5C[C@H](F)C6)nc4c3F)c12 [Compound 2] | 185 nM | 1320 nM | 6320 nM | > 10000 nM | > 10 µM |  |  |  |  |  |  |  |  |  |  |  |  | 
CCc1c(F)ccc2cc(O)cc(-c3ncc4c(N5C[C@H](O)C[C@H]5C(=O)OC)nc(OC[C@@]56CCCN5C[C@H](F)C6)nc4c3F)c12 [Compound 4] | > 1000 nM | 1630 nM | 6600 nM | 4040 nM | 7.88 µM |  |  |  |  |  |  |  |  |  |  |  |  | 
CCc1c(F)ccc2cc(O)cc(-c3ncc4c(N5CCC[C@]6(CCO6)C5)nc(OCC5(CN6CCCCC6)CC5)nc4c3F)c12 [Compound 9a] | 7.9 nM | 1.6 nM | 18.5 nM | 15 nM |  | 20.1 nM |  |  |  |  |  |  |  |  |  |  |  | 
CCc1c(F)ccc2cc(O)cc(-c3ncc4c(N5CCC[C@]6(CCO6)C5)nc(OCC5(CN6CCCC6)CC5)nc4c3F)c12 [Compound 10a] | 6.9 nM | 1.8 nM | 18.7 nM | 17 nM |  | 16 nM | 671 mL/min/kg | 46.4 mL/min/kg | 42.5 mL/min/kg |  |  |  |  |  |  |  |  | 
CCc1c(F)ccc2cc(O)cc(-c3ncc4c(N5CCCC6(CCO6)C5)nc(OC[C@@]56CCCN5C[C@H](F)C6)nc4c3F)c12 (stereo partly drawn) [Compound 25] |  |  |  |  |  |  |  |  |  | 17.4 nM | 3.36 nM | 83.7 nM | 110 nM | 173 nM | 8.25 nM | > 1000 nM |  | 
CCc1c(F)ccc2cc(O)cc(-c3ncc4c(N5CCC[C@]6(CCO6)C5)nc(OCC(C)(C)CN(C)C)nc4c3F)c12 [Compound 26a] | 13.3 nM | 4.5 nM | 98.5 nM | 37.4 nM |  | 30.8 nM |  |  |  |  |  |  |  |  |  |  |  | 
CCc1c(F)ccc2cc(O)cc(-c3ncc4c(N5CCC[C@]6(CCO6)C5)nc(OCC5(CN(CC)CC)CC5)nc4c3F)c12 [Compound 27a] | 12.7 nM | 3.07 nM | 40.5 nM | 24.8 nM |  | 32 nM |  |  |  |  |  |  |  |  |  |  |  | 
CCc1c(F)ccc2cc(O)cc(-c3ncc4c(N5CCC[C@]6(CCO6)C5)nc(OCC5(CN6CCC(F)CC6)CC5)nc4c3F)c12 [Compound 29a] | 4.3 nM | 2.3 nM | 25.1 nM | 14.7 nM |  | 25 nM | 1040 mL/min/kg | 410 mL/min/kg | 181 mL/min/kg |  |  |  |  |  |  |  |  | 
CCc1c(F)ccc2cc(O)cc(-c3ncc4c(N5CCC[C@]6(CCO6)C5)nc(OCC5(CN(C)C)CC5)nc4c3F)c12 [Compound 34a] | 3.1 nM | 1.4 nM | 23.7 nM | 13.7 nM |  | 21.6 nM | 255 mL/min/kg | 29.2 mL/min/kg | 26.3 mL/min/kg |  |  |  |  |  |  |  |  | 
CCc1c(F)ccc2cc(O)cc(-c3ncc4c(N5CCCC(C)(O)C5)nc(OC[C@@]56CCCN5C[C@H](F)C6)nc4c3F)c12 (stereo partly drawn) [Compound A1, reference compound] |  | 15.7 nM | 152 nM | 130 nM | 0.144 µM | 161 nM | 1180 mL/min/kg | 111 mL/min/kg | 46 mL/min/kg |  |  |  |  |  |  |  | 1430 nM | 7.73 µM
